{
  "source": "patent US20080221074A1",
  "about": "“Drug Screen and Treatment Method” (priority 2006, published 2008)",
  "key": {"[1]": {"assay": "metabolic stability in liver microsomes, species not stated", "conditions": "compared with androst-5-ene-3β,17β-diol", "procedure": "The protocol was performed as follows. […] (2) Set up samples as follows. […] (4) The internal standard/acetonitrile solution."}, "[2]": {"tested_on": "human T lymphocytes (PBMC)", "assay": "human mixed lymphocyte reaction (MLR)", "format": "cell-based", "conditions": "300 nM or 30 nM", "excerpt": "Human mixed lymphocyte reaction (MLR). The capacity of 3β,16α-dihydroxy-17-oxoandrostane, 3β,17β-dihydroxy-16-oxoandrostane, 17α-ethynylandrost-5-ene-3β,7β,17β-triol, and 17β-aminoandrost-5-ene-3β-ol to affect antigen specific stimulation in which human T lymphocytes respond to a specific foreign antigen (major histocompatibility complex).\nBlood samples were obtained from 3 (2 males, […]) fasting, healthy human volunteers of 23-31 years old. […] The subjects were bled between 9 and 10 AM to limit possible fluctuations in the circulating levels of hormones or cytokines that could have influenced the in vitro responses of their lymphocytes. Peripheral blood mononuclear cells (PBMC) were isolated by centrifugation on Ficoll-Hypaque (density 1.077, Biochrom AG, Berlin, Germany) gradients and resuspended in culture medium (RPMI 1640 supplemented with 2 mM L-glutamine, penicillin (100 U/mL) and streptomycin ([…]) (Invitrogen s.rl., Milan, Italy). Autologous (responder) inactivated plasma was used at 10%. Five hundred thousand responder PBMC (PBMCr) and 500,000 allogeneic irradiated (30 Gy) stimulator PBMC (PBMCs) were mixed at a ratio of 1:1 in 200 μL medium and cultured for 6 days in flat bottom 96 well plates (Nunc, Roskilde, Denmark) at a concentration of 300 nM or 30 nM for each of the 4 compounds. The compounds were dissolved in ethanol and then diluted to the desired concentration with culture medium leading to a final solution containing 0.01% of ethanol. This vehicle was used as control. Controls also included PBMCr and PBMCs cultured separately. During the last 8 hours of the culture period the PBMC were pulsed with […] [^3H] thymidine (Amersham, Milan, Italy). The cells were then harvested and radioactivity incorporation measured with a beta cell counter. The mean cpm of quadruplicate wells was calculated. Proliferation of T cells was expressed as a stimulation index: SI=cpm (PMBCs xPBMCr)/cpm (PBMCr)+cpm (PBMCs). Statistical analysis was performed using the Student's t test. The cpm obtained from quadruplicate of each test compound were compared to proliferative responses obtained in control PBMCr and PBMCs cultured in the presence of the vehicle. Differences were considered significant at p<0.05."}, "[3]": {"tested_on": "lethal amount of bacterial lipopolysaccharide (LPS)", "assay": "lethal shock protocol", "format": "in vivo, mice", "conditions": "second assay; oral gavage 24 h before and 1 h after LPS", "procedure": "Treatment of lethal inflammation/shock. Two compounds, 16α-bromoepiandrosterone (3β-hydroxy-16α-bromoandrostane-17-one) and 3β,16α-dihydroxy-17-oxoandrostane, were used in a lethal shock protocol. In one protocol, 3 mg of 16α-bromoepiandrosterone was administered to one group of animals by oral gavage, while another group received 3 mg of 16α-bromoepiandrosterone by subcutaneous injection. A group of control animals received a placebo control. In this protocol, the 16α-bromoepiandrosterone was administered to mice at 24 hours before and at 1 hour after administration of a lethal amount of bacterial lipopolysaccharide (LPS). By the end of the observation period, 72 hours after LPS administration, none of the vehicle treated placebo control animals had survived, while 65% of animals that received 16α-bromoepiandrosterone by oral administration survived. 50% of the animals that received 16α-bromoepiandrosterone by subcutaneous injection survived. Animals that survived for 72 hours all recovered from the LPS exposure.\nIn a second assay, 16α-bromoepiandrosterone or 3β,16α-dihydroxy-17-oxoandrostane was administered to mice by oral gavage at 24 hours before and 1 hour after administration of a lethal amount of LPS. A vehicle treated group of animals was used as the placebo control."}, "human whole blood": {"tested_on": "human whole blood", "assay": "γ-interferon production in human whole blood exposed to LPS", "format": "cell-based", "conditions": "24 hours with LPS; 16α-bromoepiandrosterone at 100 ng/mL", "procedure": "Anti-inflammation activity in human cells in vitro. […] The amount of γ-interferon was measured in the growth medium when the cells had been incubated in the presence of LPS for 24 hours."}, "[4]": {"tested_on": "carrageenan-λ induced pleurisy", "assay": "carrageenan-λ induced lung (pleural cavity) inflammation", "format": "in vivo, CD1 male mice", "conditions": "for number of neutrophils relative to negative control group (set at 100%): exudate 4 h after", "excerpt": "Treatment of lung inflammation. Three compounds, 3β,16α-dihydroxy-17-oxoandrostane, 3α,16β,17β-trihydroxyandrostane and 3α,16α,17α-trihydroxyandrostane were used to treat inflammation in mice essentially as described (D. Auci et al., Ann. New York Acad. Sci. 1051:730-742 2005). Five to 8 week old CD1 male mice (Charles River, Calco, Italy) were used for the study. The animals were housed in a controlled environment and provided with standard rodent chow and water. Animal care was in compliance with applicable regulations on protection of animals. Mice were allocated into one of the following groups: (1) mice treated with 2% carrageenan-k in saline (carrageenan-λ treated control group), (2) mice treated with 0.1 mg, 0.01 mg or 0.001 mg 3β,16α-dihydroxy-17-oxoandrostane by subcutaneous (s.c.) injection 24 h and 1 h before carrageenan-λ administration, (3) mice treated with 0.1 mg, 0.01 mg or 0.001 mg of 3α,16α,17α-trihydroxyandrostane by s.c. injection 24 and 1 h before carrageenan; (4) mice treated with 0.1 mg, 0.01 mg or 0.001 mg […],16β,17β-trihydroxyandrostane by s.c. injection 24 h and 1 h before carrageenan-λ administration; (5) mice treated with vehicle (0.1% carboxymethylcellulose, 0.9% saline, 2% tween 80, 0.05% phenol) s.c. 24 h and 1 h before carrageenan-λ administration; (6) mice treated with rabbit anti-mouse polyclonal anti-TNF-α antibody (200 μg) given as an intraperitoneal bolus 24 h and 1 h before carrageenan-λ administration (positive control group); and (7) sham-operated mice that were not treated with carrageenan-λ. Each group consisted of 10 mice. All treatments were given in a final volume of 100 μL. Lung (pleural cavity) inflammation was induced as follows. The mice were anaesthetised with isoflurane and a skin incision was made at the level of the left sixth intercostal space. The underlying muscle was dissected and either 0.1 mL saline (control) or 0.1 mL saline containing 2% λ-carrageenan was injected into the pleural cavity. The carrageenan-λ is a potent inducer of inflammation, which is manifested in this protocol by accumulation of fluid and neutrophils in the pleural cavity. The incision was closed with a suture and the animals were allowed to recover.\nAt 4 h after the injection of carrageenan-λ, the animals were euthanized by exposure to CO2. The chest was carefully opened and the pleural cavity rinsed with 1 mL of saline solution containing heparin (5 U/mL) and indomethacin (10 μg/mL). The exudate and washing solution were removed by aspiration and the total volume measured. Any exudate contaminated with blood was discarded. The amount of exudate was calculated by subtracting the injected 1 mL volume from the total pleural cavity volume that was recovered. The neutrophils in the exudate were suspended in phosphate-buffer saline and counted with an optical microscope in a Burker's chamber after Trypan Blue staining. The results were analysed by one-way ANOVA followed by a Bonferroni post-hoc test for multiple comparisons. A p-value less than 0.05 was considered significant. For statistical analysis each group was compared to the control group of mice that were challenged with carrageenan-k and received no other treatment.\nThe table below describes the number of neutrophils from the treated animal groups relative to untreated control animals that were exposed to carrageenan-λ, but not treated with anything else (negative control group). The neutrophil number for the negative control group was set at 100% and other groups were compared to this."}, "MG-63 cells": {"tested_on": "MG-63 cells", "assay": "pilot studies of dexamethasone in MG-63 cells", "format": "cell-based", "conditions": "Homo sapiens", "excerpt": "The capacity of compounds including 5-androstene-3β,7β,17β-triol, 17α-ethynyl-5-androstene-3β,7β,17β-triol and 4-estrene-3α,17β-diol to reverse adverse effects of glucocorticoids in bone growth was shown in the human MG-63 osteosarcoma cell line. MG-63 cells are osteoblasts, which are cells that mediate bone growth. Theis cell line has been used extensively to study bone biology and to characterize the biological activity of compounds for treatment of bone loss conditions (e.g., B. D. Boyan et al., J. Biol. Chem., 264(20):11879-11886, 1989; L. C. Hofbauer et al., Endocrinology, 140(10):4382-4389, 1999). Adverse toxicities associated with elevated glucocorticoid levels include a decrease in the production of IL-6 and IL-8 by osteoblasts, including the MG-63 cell line, and an increase in the expression of the 11β-hydroxysteroid dehydrogenase type 1 enzyme (11β-HSD). Increased 11β-hydroxysteroid dehydrogenase type 1 enzyme results in increased levels of endogenous glucocorticoid activity by converting endogenous cortisone to the active cortisol, which inhibits bone growth. The 11β-HSD enzyme is expressed in liver, adipose tissue, brain and bone tissues. Cortisol generated by 11β-HSD-1 contributes to osteoporosis, insulin resistance, type 2 diabetes, dyslipidemia, obesity, central nervous system disorders such as stroke, neuron death, depression and Parkinson Disease. […]"}, "[5]": {"tested_on": "popliteal lymph node cells", "assay": "reporter antigen popliteal lymph node (PLN) assay", "format": "in vivo, BALB/C mice", "conditions": "compound 1.0 and 0.1 mg/day; dexamethasone 5 μg/day", "excerpt": "Analysis of immune suppression. Glucocorticoid steroids such as dexamethasone or hydrocortisone are typically immune suppressive and have significant toxicities associated with their use. Immune suppression was examined in a reporter antigen popliteal lymph node assay in mice essentially as previously described (C. Goebel et al., Inflamm. Res., 45(Suppl. 2):S85-S90, 1996; R. Pieters et al., Environmental Health Perspectives 107(Suppl. 5):673-677, 1999). […] In this protocol, the vehicle was 0.1% carboxymethylcellulose, 0.9% saline, 2% tween 80 and 0.05% phenol, which contained 17α-ethynylandrost-5-ene-3β,7β,17β-triol in suspension in drug treated animals. Assessment of activity included (1) measuring suppression of numbers of total lymphocytes, antigen specific IgM, IgG1 and IgG2a antibody secreting cells (ASC) (ELISPOT assay) in popliteal lymph node cells; (2) analysis of cell surface marker (CD4, CD8, CD19, F480, CD80, CD86) expression by flow cytometry of living cells in suspension; and (3) IL-4, TNFα and IFNγ production by lymphocytes in vitro (ELISA).\nGroups (n=5 per group) of specific pathogen free BALB/C mice were used. The Positive control group was treated with vehicle (oral gavage) and 5 μg/day dexamethasone by subcutaneous injection to induce immune suppression. Vehicle control animals (negative control) were treated with vehicle alone (oral gavage). One group of animals was treated with 17α-ethynylandrost-5-ene-3β,7β,17β-triol at 0.1 mg/day by oral gavage. Another group was treated with 1 mg/day of 17α-ethynylandrost-5-ene-3β,7β,17β-triol was administered to the animals oral gavage. The results were analyzed by two-tailed Student's t-test with equal variance. The animals were injected in the right hind footpad with 50 μL of freshly prepared sensitizing dose of TNP-OVA. […] Single cell suspensions were prepared, resuspended in 1 mL PBS-BSA (1%) and counted. Cell numbers, IL-4, IL-5 and IFNγ were measured."}, "NF-κB": {"tested_on": "NF-κB", "assay": "inhibition of NF-κB activation in NF-κB-bla THP-1 cells after LPS stimulation", "format": "cell-based, human", "conditions": "Homo sapiens, THP-1; LPS stimulation; 50% of the compound's maximum inhibition; averages; read-out: IC50", "in_short": "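THP-1 monocytes stably carrying an NF-κB response element–driven β-lactamase reporter, plated about 24 h before activation with LPS at 0.2 ng/mL. Reporter activity measured by FRET ratiometric detection; values are averages of usually 2-4 runs per compound.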"}, "[6]": {"tested_on": "bone loss after thermal injury", "assay": "bone loss in thermally-injured mice", "format": "in vivo", "conditions": "20% total body surface area thermal injury", "excerpt": "In bone loss conditions, 5-androstene-3β,7β,17β-triol affected the principal bone structures, i.e., cortical and trabecular layers and the growth plate. […] We observed partial protection against loss of bone mineral content as measured by dual X-ray absorptiometry."}},
  "note": "Where two headings read alike, the source gives them in different places.",
  "data": [
    {"smiles": "C[C@]12CC[C@H](O)CC1CC[C@@H]1[C@@H]2CC[C@]2(C)C(=O)[C@H](O)C[C@@H]12", "note": "(stereo partly drawn) [3β,16α-dihydroxy-17-oxoandrostane]", "values": [
      {"measurement": "rate of metabolism by microsomes", "setting": "[1]", "result": "metabolized by microsomes at a rate similar to the androst-5-ene-3β,17β-diol reference compound"},
      {"measurement": "immune suppression (inhibition of the MLR)", "setting": "[2]", "result": "not appreciably immune suppressive"},
      {"measurement": "survival 72 hours after LPS", "setting": "[3]", "result": 50, "unit": "%"},
      {"measurement": "production of γ-interferon", "setting": "human whole blood", "result": "Reduced production"},
      {"measurement": "number of neutrophils relative to negative control group (set at 100%)", "setting": "[4]; 0.001 mg s.c. 24 h and 1 h before carrageenan-λ", "result": 97, "unit": "%"},
      {"measurement": "number of neutrophils relative to negative control group (set at 100%)", "setting": "[4]; 0.01 mg s.c. 24 h and 1 h before carrageenan-λ", "result": 73, "unit": "%"},
      {"measurement": "volume of pleural exudate", "setting": "[4]; 0.1 mg dose s.c.", "result": "significantly reduced"},
      {"measurement": "number of neutrophils relative to negative control group (set at 100%)", "setting": "[4]; 0.1 mg s.c. 24 h and 1 h before carrageenan-λ", "result": 73, "unit": "%"},
      {"measurement": "potency compared with polyclonal anti-TNF-α antibody control", "setting": "[4]; s.c.", "result": "less potent"}
    ]},
    {"smiles": "C[C@@H]1C[C@H]2[C@@H]3CCC4=CC(=O)C=C[C@]4(C)[C@@]3(F)[C@@H](O)C[C@]2(C)[C@@]1(O)C(=O)CO", "note": "[dexamethasone, reference compound]", "values": [
      {"measurement": "IC50", "setting": "MG-63 cells; read-out: IC50 for inhibition of IL-6 from MG-63 cells", "result": 10, "unit": "nM"},
      {"measurement": "IC50", "setting": "MG-63 cells; read-out: IC50 for inhibition of growth of MG-63 cells", "result": 15.3, "unit": "nM"},
      {"measurement": "IFNγ, IL-4 and IL-5 levels compared to vehicle control", "setting": "[5]", "result": "reduced"},
      {"measurement": "IC50", "setting": "NF-κB", "result": 0.47, "unit": "nM"}
    ]},
    {"smiles": "C[C@]12CC[C@H]3[C@@H]([C@@H](O)C=C4C[C@@H](O)CC[C@@]43C)[C@@H]1CC[C@@H]2O", "note": "[androst-5-ene-3β,7β,17β-triol]", "values": [
      {"measurement": "femur ash weight vs vehicle-treated burned mice", "setting": "[6]", "result": "significantly (p<0.01) greater"},
      {"measurement": "loss of cortical and trabecular bone mass and suppression of chondrocyte proliferation", "setting": "[6]", "result": "significantly (p<0.01) prevented"}
    ]}
  ]
}
